Measured values as given in paper PMC11620517, “Novel hydrazone compounds with broad-spectrum antiplasmodial activity and synergistic interactions with antimalarial drugs” (Antimicrobial Agents and Chemotherapy, 2024).
pIC50: −log10 of the molar value. “And” between values parts separate entries of the source, which are not always exact repeats. Identical values can stand only once. Like-named read-outs stand apart in the source and are kept apart here.

Assays:
[1] = tested on: P. falciparum oocyst formation in Anopheles stephensi mosquitoes; test: P. falciparum oocyst inhibition assay (SMFA); assay type: in vivo, Plasmodium falciparum; conditions: for Median (oocysts) / Median I % / Prevalence % / Prevalence I %: pooled from two representative experiments; for oocyst formation inhibition: midguts dissected 8 days after feeding
Protocol: As previously described, P. falciparum infections were performed using SMFA with NF54 gametocyte cultures diluted to 0.3% stage V gametocytemia ([62]). Infected blood (O+ human 45% hematocrit in serum) was offered to mosquitoes for 30 minutes, and engorged mosquitoes were maintained on a 10% corn syrup solution supplemented by four concentrations of CB compounds (1, 2.5, 5, and 10 µM) at […] ([63]), with DMSO serving as a control. Eight days post-infection, mosquito midguts were dissected and stained with 0.2% mercurochrome for 30 minutes, and oocysts were quantified under a light microscope ([63]).

in vitro = conditions: human, HepG2 cells
Protocol: HepG2 cell viability was assessed using the Cell Proliferation kit with trypan blue exclusion. […] After incubation, a 1.5-mg/mL Cell Proliferation kit solution diluted in complete MEM medium was added to each well, followed by 1-hour dark incubation at 25°C. After aspiration of media and inhibitors, the plates were dried in a hood for 15 minutes, and acidified isopropyl alcohol was added to dissolve formazan dye crystals. The plates were then rotated for 15–30 minutes, and absorbance was determined using a Perkin Elmer Ensight plate reader.

[2] = tested on: P. berghei ookinete development (Ookluc parasites); test: P. berghei ookinete luciferase inhibition assay; assay type: cell-based, Plasmodium berghei; conditions: for pIC50: 24 hours at 19°C, luminescence, read-out: IC50 (ookinete development)
Protocol: Mice were pretreated with phenylhydrazine [6 mg/mL, intraperitoneal injection (IP)] 3 days before intravenous injection (IV) infection with P. berghei Ookluc parasites ([19], [62]). Once parasitemia exceeded 15%, the mice received PYR (1 mg/mL, IP) ([19], [62]). Twenty-four hours after PYR treatment, infected mice were assessed for at least 10 exflagellations before blood was collected by heart puncture ([19], [62]). Infected blood (1:20 dilution) was incubated with 8-point serial dilutions (2.5–75 µM) of CB compounds for 24 hours at 19°C with gentle shaking ([62], [64]). Relative luminescence units (RLU) of mature ookinetes were measured using the Promega Nano-Glo Luciferase Assay System Kit and a SpectraMax M3 Microplate Reader (Molecular Devices, San Jose, CA, USA) after 3 minutes. Giemsa blood smears confirmed ookinetes.

[3] = tested on: primary primate hepatocytes; test: hepatocyte toxicity in the P. cynomolgi liver-stage assay; assay type: cell-based
Protocol: Primary primate hepatocytes were seeded in 384-well plates and used within 2–4 days ([56]). P. cynomolgi B strain parasites were inoculated and developed into hypnozoites and schizonts. CB compounds were tested in 8-point, threefold serial dilutions (100 µM to […]) for both prophylactic (4 days starting with sporozoite addition) and radical cure (4 days starting day 4 post-inoculation) modalities ([56][–][60]). The Operetta CLS imaging system and Harmony Software 4.9 (Perkin Elmer, Waltham, MA, USA) analyzed the plates, and the percentage of inhibition (PI) was calculated in Python using equation (1), where parasitic quantities (hypnozoite and schizont counts) were normalized to the negative control ([57]). Each plate included negative (DMSO) and positive (KDU691, maduramicin, tafenoquine) controls ([58]). IC50 values were determined using an 8-point, threefold dilution format and a Python-adapted grid algorithm for fitting PI to a four-parameter logistic function ([61]).

P. falciparum D6 = test: Malaria SYBR Green I-Based Fluorescence (MSF) assay, blood stages; assay type: cell-based; conditions: Plasmodium falciparum, D6; blood stages, 72 hours, drug-sensitive strain; read-out: IC50 (µM) (±SD) for strain: D6
Protocol: (§1) MSF assays were performed in vitro with four P. falciparum strains: D6 (drug sensitive), TM91-C235 (multidrug resistant), W2 (CQ resistant), and C2B (multidrug resistant against ATQ). Parasite strains were kept continuously in long-term cultures as described ([22]). Pre-dosed 384-well plates containing […] serial dilutions of CB compounds (0.0098–20 µM) were prepared using the Tecan Freedom Evo liquid handling system (Tecan USA, Inc., Durham, NC, USA) and were stored at 4°C. A CQ control plate (2,000 ng/mL) was included in each run. Based on modifications of previous methods ([17], [55]), late-ring or early-trophozoite stages were cultured in pre-dosed plates with 0.3% parasitemia and 2% hematocrit. Cultures were incubated for 72 hours at 37°C in a controlled atmosphere of 5% CO2, 5% O2, and 90% N2. Lysis buffer, consisting of 20 mM Tris HCl, 5 mM EDTA, 1.6% Triton X, 0.016% saponin, and SYBR Green I dye at a 20X concentration (Invitrogen #S-7567), was added to the plates for a final 10X SYBR Green concentration. Plates containing cell culture media and lysis buffer were incubated in the dark at 25°C for 24 hours, and the relative fluorescence units (RFU) were measured using the Tecan Genios Plus (Tecan USA, Inc.).

P. falciparum C2B = test: as above; assay type: cell-based; conditions: Plasmodium falciparum, 72 h, read-out: IC50 (µM) (±SD) for strain: C2B
Protocol: as §1

P. falciparum TM91c235 = test: as above; assay type: cell-based; conditions: Plasmodium falciparum; blood stages, 72 hours, multidrug resistant strain; read-out: IC50 (µM) (±SD) for strain: TM91c235
Protocol: as §1

P. falciparum W2 = test: as above; assay type: cell-based; conditions: Plasmodium falciparum, W2; blood stages, 72 hours, CQ resistant strain; read-out: IC50 (µM) (±SD) for strain: W2
Protocol: as §1

[4] = 1 μM compound, P. falciparum midgut infection in An. stephensi mosquitoes
[5] = 1 μM compound, infection prevalence in mosquitoes
[6] = 2.5 μM compound, P. falciparum midgut infection in An. stephensi mosquitoes
[7] = 2.5 μM compound, infection prevalence in mosquitoes
[8] = 2.5 μM, single experiments, read-out: % inhibition (mean)
[9] = 2.5 μM, single experiments, read-out: % inhibition (median)
[10] = 5 μM compound, P. falciparum midgut infection in An. stephensi mosquitoes
[11] = 5 μM compound, infection prevalence in mosquitoes
[12] = 5 μM, single experiments, read-out: % inhibition (mean)
[13] = 10 μM compound, P. falciparum midgut infection in An. stephensi mosquitoes
[14] = 10 μM compound, infection prevalence in mosquitoes

COc1cccc(/C=N/NC(=O)c2nc(-c3ccccc3)cc(-c3ccccc3)n2)c1O [CB-41]
Median oocyst # ([1]; 1 μM compound): 45 | Mean oocyst # excluding zeros (Range) [1, 4]: 53 (0-136) | Prevalence [1, 5]: 85 | inhibition at 1 µM ([1]; 1 μM compound, vs DMSO control, read-out: % inhibition (prevalence)): 14% | Median (oocysts) ([1]; 1 µM): 45 | Median I % ([1]; 1 µM): 18% | Prevalence % ([1]; 1 µM): 85% | Prevalence I % ([1]; 1 µM): 14% | Mean oocyst # excluding zeros (Range) ([1]; 1 μM, single experiments): 53 (0-136) and 77 (0-156) | Median oocyst # ([1]; 1 μM, single experiments): 45 and 63 | Median oocyst # ([1]; 2.5 μM compound): 44 | Mean oocyst # excluding zeros (Range) [1, 6]: 51 (0-123) | Prevalence [1, 7]: 83 | inhibition at 2.5 µM ([1]; 2.5 μM compound, oocyst number vs DMSO control, read-out: % inhibition (mean)): 2% | inhibition at 2.5 µM ([1]; 2.5 μM compound, oocyst number vs DMSO control, read-out: % inhibition (median)): 19% | inhibition at 2.5 µM ([1]; 2.5 μM compound, vs DMSO control, read-out: % inhibition (prevalence)): 17% | Median (oocysts) ([1]; 2.5 µM): 44 | Median I % ([1]; 2.5 µM): 19% | Prevalence % ([1]; 2.5 µM): 83% | Prevalence I % ([1]; 2.5 µM): 17% | % inhibition (mean) ([1]; 2.5 μM, single experiments): 9% | % inhibition (median) ([1]; 2.5 μM, single experiments): 30% | Mean oocyst # excluding zeros (Range) ([1]; 2.5 μM, single experiments): 47 (0-92) and 55 (0-123) and 64 (0-156) | Median oocyst # ([1]; 2.5 μM, single experiments): 40 and 48 | inhibition at 2.5 µM [1, 8]: 10% | inhibition at 2.5 µM [1, 9]: 26% | Median oocyst # ([1]; 5 μM compound): 32 | Mean oocyst # excluding zeros (Range) [1, 10]: 49 (0-108) | Prevalence [1, 11]: 71 | inhibition at 5 µM ([1]; 5 μM compound, oocyst number vs DMSO control, read-out: % inhibition (mean)): 6% | inhibition at 5 µM ([1]; 5 μM compound, oocyst number vs DMSO control, read-out: % inhibition (median)): 41% | inhibition at 5 µM ([1]; 5 μM compound, vs DMSO control, read-out: % inhibition (prevalence)): 28% | Median (oocysts) ([1]; 5 µM): 32 | Median I % ([1]; 5 µM): 41% | Prevalence % ([1]; 5 µM): 71% | Prevalence I % ([1]; 5 µM): 28% | Mean oocyst # excluding zeros (Range) ([1]; 5 μM, single experiments): 45 (0-108) and 52 (0-107) and 70 (0-144) | inhibition at 5 µM [1, 12]: 15% | Median oocyst # ([1]; 10 μM compound): 35 | Mean oocyst # excluding zeros (Range) [1, 13]: 44 (0-128) | Prevalence [1, 14]: 82 | inhibition at 10 µM ([1]; 10 μM compound, oocyst number vs DMSO control, read-out: % inhibition (mean)): 15% | inhibition at 10 µM ([1]; 10 μM compound, vs DMSO control, read-out: % inhibition (prevalence)): 18% | Median (oocysts) ([1]; 10 µM): 35 | Median I % ([1]; 10 µM): 36% | Prevalence % ([1]; 10 µM): 82% | Prevalence I % ([1]; 10 µM): 18% | % inhibition (prevalence) ([1]; 10 μM, single experiments): 45% | Mean oocyst # excluding zeros (Range) ([1]; 10 μM, single experiments): 37 (0-102) and 50 (0-128) and 59 (0-146) | Median oocyst # ([1]; 10 μM, single experiments): 27 and 44 | inhibition at 10 µM ([1]; 10 μM, single experiments, read-out: % inhibition (prevalence)): 46% | median inhibition percentage ([1]; 1 to 10 µM): below 50% | prevalence inhibition percentage ([1]; 1 to 10 µM): below 50% | oocyst formation inhibition ([1]; 1 to 10 µM): inhibited midgut oocyst formation in a dose-dependent manner | IC50 at 48 h (in vitro): > 20000 nM | pIC50 [2]: 5.08 | pIC50 ([2]; Plasmodium berghei, 24 h): 4.78 | Toxicity [3]: >10 µM | IC50 (P. falciparum D6): 2.26 µM | IC50 (P. falciparum C2B): 2.73 µM | IC50 (P. falciparum TM91c235): 2.26 µM | IC50 (P. falciparum W2): 2.71 µM

O=C(N/N=C/c1cc(Br)ccc1O)/C(=C/C=C/c1ccccc1)NC(=O)c1ccccc1 [CB-50]
Median oocyst # ([1]; 1 μM compound): 8 | Mean oocyst # excluding zeros (Range) [1, 4]: 18 (0-95) | Prevalence [1, 5]: 81 | Median (oocysts) ([1]; 1 µM): 8 | Prevalence % ([1]; 1 µM): 82% | Prevalence ([1]; 1 μM, single experiments): 73 and 91 and 90 | inhibition at 1 µM ([1]; 1 μM, single experiments, read-out: % inhibition (mean)): 48% | inhibition at 1 µM ([1]; 1 μM, single experiments, read-out: % inhibition (median)): 48% | Median oocyst # ([1]; 2.5 μM compound): 9 | Mean oocyst # excluding zeros (Range) [1, 6]: 26 (0-103) | Prevalence [1, 7]: 74 | Median (oocysts) ([1]; 2.5 µM): 9 | Prevalence % ([1]; 2.5 µM): 74% | Prevalence ([1]; 2.5 μM, single experiments): 68 and 82 and 83 | inhibition at 2.5 µM [1, 8]: 38% | inhibition at 2.5 µM [1, 9]: 48% | inhibition at 2.5 µM ([1]; 2.5 μM, single experiments, read-out: % inhibition (prevalence)): 5% | Median oocyst # ([1]; 5 μM compound): 7 | Mean oocyst # excluding zeros (Range) [1, 10]: 15 (0-67) | Prevalence [1, 11]: 89 | Median (oocysts) ([1]; 5 µM): 7 | Prevalence % ([1]; 5 µM): 89% | Prevalence ([1]; 5 μM, single experiments): 87 and 90 and 92 | inhibition at 5 µM [1, 12]: 19% | inhibition at 5 µM ([1]; 5 μM, single experiments, read-out: % inhibition (median)): 3% | Median oocyst # ([1]; 10 μM compound): 7 | Mean oocyst # excluding zeros (Range) [1, 13]: 18 (0-74) | Prevalence [1, 14]: 74 | Median (oocysts) ([1]; 10 µM): 7 | Prevalence % ([1]; 10 µM): 74% | Prevalence ([1]; 10 μM, single experiments): 65 and 88 and 89 | inhibition at 10 µM ([1]; 10 μM, single experiments, read-out: % inhibition (mean)): 52% | inhibition at 10 µM ([1]; 10 μM, single experiments, read-out: % inhibition (median)): 61% | oocyst formation inhibition ([1]; 1 to 10 µM): did not inhibit oocyst formation | IC50 at 48 h (in vitro): > 20000 nM | activity in ookinete formation ([2]; dose–response 2.5–75 µM): no activity | Toxicity [3]: >10 µM | IC50 (P. falciparum D6): 1.14 µM | IC50 (P. falciparum C2B): 1.89 µM | IC50 (P. falciparum TM91c235): 1.84 µM | IC50 (P. falciparum W2): 1.15 µM
